The values below come from ChEMBL document CHEMBL1201862, “PubChem BioAssay data set” (2004).

Among the test systems are A549; ACHN; BT-549; CAKI-1; EKVX; HCC 2998; Hs-578T; KM12; M14; MDA-MB-231; MOLT-4; NCI-H226; OVCAR-5; RPMI-8226; SF-539; SK-MEL-28; SK-OV-3; SNB-19; T47D; UO-31.
What all share (test): NCI tumour cell line growth inhibition, 48 h

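Dose response: 5 concentrations. Exposure: 48 h. Format: 96-well plates. Endpoint: linear interpolation; highest concentration if not reached. Here, GI50 denotes the concentration required for 50% inhibition of growth.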 The source made the active and inactive calls. Cut-off read from the data, not from the text of the source: active = GI50 up to about 1.1 µM and inactive = higher. Bounds are passed on as bounds.

As to `CC(C)C1=CC(=O)C(C)(C2C(O)CC3(C)C4CC=C5C(CCC(OC6OC(CO)C(O)C(O)C6OC6OC(C)C(O)C(O)C6O)C5(C)C)C4(C)C(=O)CC23C)O1` (stereo not given), the GI50 with A549, in the experiment with ACHN, in the experiment on BT-549, with CAKI-1, with EKVX and in the experiment with HCC 2998 was > 100 µM (inactive) in each case. In addition, the GI50 in the experiment on Hs-578T, in the experiment with KM12, in the experiment with M14, with MDA-MB-231, in the experiment on MOLT-4 and in the experiment on NCI-H226 was > 100 µM (inactive) each time. Further, the GI50 in the experiment on OVCAR-5, with RPMI-8226, in the experiment on SF-539, in the experiment with SK-MEL-28, in the experiment on SK-OV-3 and in the experiment on SNB-19 was > 100 µM (inactive) each time. Also, the GI50 in the experiment on T47D and with UO-31 was > 100 µM (inactive) in each case.

In the case of `CCCCn1cc(C(=O)O)c(=O)c2c3sccc3ccc21`, the GI50 in the experiment with A549, with ACHN, with BT-549, with CAKI-1, in the experiment on EKVX and in the experiment on HCC 2998 was > 100 µM (inactive) in each case. The GI50 with Hs-578T, with KM12, with M14, in the experiment on MDA-MB-231, with MOLT-4 and with NCI-H226 was > 100 µM (inactive) in each case. Besides, the GI50 in the experiment with OVCAR-5, in the experiment on RPMI-8226, in the experiment with SF-539, in the experiment on SK-MEL-28, in the experiment with SK-OV-3 and with SNB-19 was > 100 µM (inactive) each time. Further, the GI50 in the experiment with T47D is > 100 µM (inactive); in the experiment with UO-31, 20 µM (inactive).

For the compound `COC(=O)C1=C(OC(=O)/C(=C/c2ccccc2)c2ccc([N+](=O)[O-])cc2)C(C(=O)OC)[C@@]2(O)[C@@H](C(=O)OC)[C@H](C)C[C@@H]1[C@@H]2C(=O)OC` (stereo not given in full), the GI50 is 76.2 µM (inactive) in the experiment on A549; > 100 µM (inactive) with ACHN; 31.1 µM (inactive) with BT-549; > 100 µM (inactive) in the experiment on CAKI-1; > 100 µM (inactive) in the experiment with EKVX; > 100 µM (inactive) in the experiment on HCC 2998. Moreover, the GI50 is > 100 µM (inactive) with Hs-578T; > 100 µM (inactive) with KM12; > 100 µM (inactive) in the experiment with M14; > 100 µM (inactive) with MDA-MB-231; 3.53 µM (inactive) in the experiment with MOLT-4; > 100 µM (inactive) in the experiment on NCI-H226. Moreover, the GI50 in the experiment on OVCAR-5 is > 100 µM (inactive); in the experiment on RPMI-8226, 3.71 µM (inactive); in the experiment with SF-539, 51.5 µM (inactive); with SK-MEL-28, > 100 µM (inactive); in the experiment with SK-OV-3, > 100 µM (inactive); in the experiment on SNB-19 it was > 100 µM (inactive). For the same compound, the GI50 in the experiment with T47D and in the experiment on UO-31 was > 100 µM (inactive) throughout.

In the case of `O=c1[nH]c(=O)n(C2CC(O)C(CS)O2)cc1F` (stereo not given), the GI50 was 23.6 µM (inactive) with A549; 21.4 µM (inactive) in the experiment on ACHN; > 100 µM (inactive) with BT-549; > 81.7 µM (inactive) in the experiment on CAKI-1; > 100 µM (inactive) in the experiment with EKVX; 4.61 µM (inactive) in the experiment with HCC 2998. Moreover, the GI50 was > 100 µM (inactive) with Hs-578T; 99.1 µM (inactive) in the experiment on KM12; > 100 µM (inactive) with M14; > 80 µM (inactive) with MDA-MB-231; 62.5 µM (inactive) in the experiment with MOLT-4; > 100 µM (inactive) with NCI-H226. The GI50 was > 61.9 µM (inactive) with OVCAR-5; 67 µM (inactive) in the experiment on RPMI-8226; 11 µM (inactive) in the experiment on SF-539; 74.1 µM (inactive) in the experiment on SK-MEL-28; > 100 µM (inactive) with SK-OV-3; 98.4 µM (inactive) in the experiment with SNB-19. For the same compound, the GI50 is > 76.2 µM (inactive) in the experiment with T47D and 60.4 µM (inactive) in the experiment on UO-31.

For `CCOC(=O)C(CC(C)C)NC(=O)C(N)Cc1ccc(N(CCCl)CCCl)cc1` (stereo not given), the GI50 in the experiment on A549 was 6.95 µM (inactive); in the experiment on ACHN, 0.333 µM (active); in the experiment with BT-549, 15.8 µM (inactive); in the experiment on CAKI-1 it was 3.11 µM (inactive); in the experiment with EKVX, 17.9 µM (inactive); with HCC 2998, 7.35 µM (inactive). Besides, the GI50 was 18.6 µM (inactive) in the experiment on Hs-578T; 12.9 µM (inactive) with KM12; 2.83 µM (inactive) in the experiment on M14; 15.7 µM (inactive) in the experiment with MDA-MB-231; 0.0637 µM (active) in the experiment on MOLT-4; 9.71 µM (inactive) with NCI-H226. Besides, the GI50 in the experiment with OVCAR-5 was 11.8 µM (inactive); with RPMI-8226 it was 5.61 µM (inactive); with SF-539, 2.57 µM (inactive); in the experiment with SK-MEL-28 it was 4.81 µM (inactive); with SK-OV-3, 3.65 µM (inactive); in the experiment on SNB-19, 12 µM (inactive). Further, the GI50 in the experiment on T47D is 2.35 µM (inactive); with UO-31, 2.17 µM (inactive).

On to `COc1ccc(C(c2ccc(OC)cc2)N2C(=O)CCC2C(=O)O)cc1` (stereo not given), for which the GI50 in the experiment with A549, in the experiment on ACHN, in the experiment with BT-549, in the experiment with CAKI-1, with EKVX and in the experiment with HCC 2998 was > 100 µM (inactive) in each case. Further, the GI50 in the experiment with Hs-578T, in the experiment with KM12, with M14, in the experiment with MDA-MB-231, with MOLT-4 and with NCI-H226 was > 100 µM (inactive) in each case. The GI50 with OVCAR-5, in the experiment with RPMI-8226, in the experiment with SF-539, in the experiment on SK-MEL-28, in the experiment on SK-OV-3 and in the experiment on SNB-19 was > 100 µM (inactive) in each case. Besides, the GI50 with T47D and in the experiment on UO-31 was > 100 µM (inactive) throughout.

With `CCOC(=O)C1(C(=O)OCC)C[C@H]2CON=C2[C@@H]1c1ccc(C(F)(F)F)cc1`, the GI50 was 75 µM (inactive) with A549; 19.1 µM (inactive) with ACHN; 44.7 µM (inactive) in the experiment with BT-549; 30.9 µM (inactive) in the experiment on CAKI-1; 29.5 µM (inactive) in the experiment with EKVX; 31.9 µM (inactive) in the experiment on HCC 2998. For the same compound, the GI50 in the experiment on Hs-578T was 98.6 µM (inactive); in the experiment on KM12, 82.6 µM (inactive); in the experiment with M14, 55.1 µM (inactive); in the experiment on MDA-MB-231, > 100 µM (inactive); in the experiment on MOLT-4, 25.9 µM (inactive); in the experiment with NCI-H226, 34.9 µM (inactive). For the same compound, the GI50 in the experiment on OVCAR-5 was 72.6 µM (inactive); in the experiment with RPMI-8226 it was 26.5 µM (inactive); in the experiment with SF-539, > 100 µM (inactive); in the experiment on SK-MEL-28, > 100 µM (inactive); in the experiment with SK-OV-3, 57.8 µM (inactive); in the experiment on SNB-19, > 100 µM (inactive). For the same compound, the GI50 in the experiment with T47D was 16.7 µM (inactive); with UO-31 it was 14.2 µM (inactive).

As to `COc1cc2c(cc1OC)-c1cc3cc(OC)c(OC)cc3c(C)[n+]1CC2.O=C([O-])CS(=O)(=O)O`, the GI50 in the experiment with A549 was > 100 µM (inactive); in the experiment with ACHN, > 100 µM (inactive); in the experiment with BT-549 it was 41.7 µM (inactive); with CAKI-1 it was > 100 µM (inactive); in the experiment on EKVX, > 100 µM (inactive); in the experiment on HCC 2998, 19.3 µM (inactive). For the same compound, the GI50 with Hs-578T is > 100 µM (inactive); in the experiment with KM12, 26.3 µM (inactive); in the experiment with M14 it was > 100 µM (inactive); in the experiment with MDA-MB-231 it was > 100 µM (inactive); in the experiment with MOLT-4 it was 9.51 µM (inactive); with NCI-H226, > 100 µM (inactive). Further, the GI50 with OVCAR-5 was > 100 µM (inactive); in the experiment on RPMI-8226 it was > 100 µM (inactive); in the experiment with SF-539, 76.6 µM (inactive); with SK-MEL-28, > 100 µM (inactive); in the experiment on SK-OV-3 it was 79.1 µM (inactive); with SNB-19, 41.7 µM (inactive). The results for the GI50 with T47D and in the experiment on UO-31 were 2.82 µM (inactive) and > 100 µM (inactive), respectively.

Take `CCCCCCCCOP(=O)(O)OP(=O)(O)OCC1OC(n2ccc(N)nc2=O)C(O)C1O` (stereo not given): the GI50 in the experiment on A549, in the experiment on ACHN, in the experiment with BT-549, in the experiment with CAKI-1, in the experiment on EKVX and with HCC 2998 was > 100 µM (inactive) throughout. The GI50 in the experiment with Hs-578T, in the experiment on KM12, with M14, with MDA-MB-231, with MOLT-4 and in the experiment on NCI-H226 was > 100 µM (inactive) in each case. The GI50 with OVCAR-5, with RPMI-8226, in the experiment on SF-539, in the experiment with SK-MEL-28, in the experiment on SK-OV-3 and in the experiment on SNB-19 was > 100 µM (inactive) in each case. Besides, the GI50 with T47D and in the experiment on UO-31 was > 100 µM (inactive) throughout.

`Oc1cc(Cc2ccccc2)c(Cc2ccccc2)cc1O`: the GI50 in the experiment with A549, in the experiment on ACHN, in the experiment with BT-549, in the experiment on CAKI-1, with EKVX and in the experiment on HCC 2998 was > 10 µM (inactive) each time. The GI50 in the experiment on Hs-578T, with KM12, with M14, with MDA-MB-231, with MOLT-4 and in the experiment with NCI-H226 was > 10 µM (inactive) in each case. In addition, the GI50 in the experiment on OVCAR-5, in the experiment on RPMI-8226, with SF-539, with SK-MEL-28, in the experiment with SK-OV-3 and in the experiment on SNB-19 was > 10 µM (inactive) each time. Also, the GI50 in the experiment on T47D and in the experiment with UO-31 was > 10 µM (inactive) in each case.
